This is an account of results in patent US12692232B2, “Indole carboxamide compound, preparation therefor and use thereof” (NANJING RUISHUNING MEDICAL TECHNOLOGY CO., LTD., priority 2021, dated 2026).

This experiment concerns the target T1, TRPC6 channel (Homo sapiens, UniProt Q9Y210).
T1 sequence (Q9Y210 1-931): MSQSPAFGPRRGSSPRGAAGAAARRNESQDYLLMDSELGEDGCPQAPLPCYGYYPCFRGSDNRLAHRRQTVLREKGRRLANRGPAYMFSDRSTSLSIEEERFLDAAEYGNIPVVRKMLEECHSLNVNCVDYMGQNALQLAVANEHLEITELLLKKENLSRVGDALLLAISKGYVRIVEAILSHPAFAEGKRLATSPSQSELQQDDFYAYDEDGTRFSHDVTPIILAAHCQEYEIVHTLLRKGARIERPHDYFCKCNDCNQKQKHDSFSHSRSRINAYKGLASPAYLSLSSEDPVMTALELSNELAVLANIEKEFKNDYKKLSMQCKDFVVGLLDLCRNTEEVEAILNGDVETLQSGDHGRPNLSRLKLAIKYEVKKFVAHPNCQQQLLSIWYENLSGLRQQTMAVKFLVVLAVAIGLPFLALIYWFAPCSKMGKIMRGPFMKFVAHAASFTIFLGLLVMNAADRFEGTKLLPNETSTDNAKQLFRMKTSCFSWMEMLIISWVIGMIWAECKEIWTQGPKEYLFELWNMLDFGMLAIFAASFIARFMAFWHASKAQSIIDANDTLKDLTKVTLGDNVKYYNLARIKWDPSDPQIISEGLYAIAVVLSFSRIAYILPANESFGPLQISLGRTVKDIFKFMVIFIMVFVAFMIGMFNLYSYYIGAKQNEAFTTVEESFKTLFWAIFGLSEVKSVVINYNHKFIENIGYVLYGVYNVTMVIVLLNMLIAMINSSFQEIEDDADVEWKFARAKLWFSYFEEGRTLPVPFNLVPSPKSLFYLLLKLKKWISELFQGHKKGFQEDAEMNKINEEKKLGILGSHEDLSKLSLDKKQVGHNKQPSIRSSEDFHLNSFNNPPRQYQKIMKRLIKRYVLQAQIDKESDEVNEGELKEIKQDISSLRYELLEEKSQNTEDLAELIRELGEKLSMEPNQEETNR
Description: IC50 on TRPC6 channel-mediated Ca2+ entry in HEK293hTRPC6 cells. It is filed as cell-based. Also noted: expressed in transfected cells; host or cells: HEK293 (lentiviral transduction, puromycin selection). The settings on record: HEK293hTRPC6, OAG 80 μM, Ca2+ 2 mM. As for the experimental part: The half maximal inhibitory concentrations (IC50) of the compounds of the present invention (as exemplified by Compound 1-1 obtained in Example 1) on TRPC6 channel-mediated Ca^2+ entry were determined using HEK293hTRPC6, a tool cell overexpressing TRPC6 protein. Methods were as follows: HEK293hTRPC6, a tool cell overexpressing TRPC6 protein, was established in the same manner as in Example 7.
Determination of the effect of compounds on changes in intracellular calcium ion concentration in HEK293hTRPC6 cells: the mother solution of the compounds was diluted to the following concentrations, 0.1 nM, 0.3 nM, 1 nM, 3 nM, 10 nM, 30 nM, 100 nM, 300 nM, 1,000 nM, and 3,000 nM, respectively, using cell culture medium. […] The crawls were placed in the center of the bath, perfused with calcium-free Tyrode's solution for 5 min and fixed on the stage of an inverted fluorescence microscope. […] Fluorescence intensity was measured at different excitation wavelengths (340 nm, 380 nm) using a TILL Ion Imaging System (TILLvisION), and the value of fluorescence intensity emitted by intracellular fluorescent probe at different excitation wavelengths was substituted into the formula: [Ca^2+]i=Kd×β×(R−Rmin)/[…]. […] Dose-effect curves were fitted using GraphPad Prism software and the IC50 was calculated.

Broadly, the IC50 is the midpoint of a concentration-inhibition curve. Read a high IC50 as a need for much substance. Consider `Cn1c(C(=O)NCCC(=O)O)cc2ccccc21` [3-[(1-methyl-1H-indole-2-carbonyl)amino]propionic acid, reference compound], for which inhibition was half-maximal at 24.1 nM (IC50).
`CC(=O)OCCCNC(=O)c1c(C=O)c2ccccc2n1C` [compound 1-1, propyl 3-[(3-formyl-1-methyl-1H-indole-2-carbonyl)amino]acetate]: the IC50 was 11.4 nM.
